Reference: patent EP4789671A1, “PHARMACEUTICAL COMPOSITION CONTAINING URACIL DERIVATIVE” (priority 2023, dated 2025)
Values joined by “and” are separate entries in the source; they are usually repeats but may differ in a detail not shown here. Equal values may be shown once. Read-outs that look alike come from different tables or passages of the source.

Legend:
[1] = target: T1, Recombinant SARS-CoV-2 3CL Protease (Severe acute respiratory syndrome coronavirus 2, UniProt P0DTD1); experiment: Inhibitory activity test on SARS-CoV-2 3CL protease (Test Example 2-1); assay type: biochemical; conditions: 8 µM substrate, 6 nM or 0.6 nM enzyme, 3 to 5 hours
T1 construct: Recombinant SARS-CoV-2 3CL Protease; purchased

SARS-CoV-2 [2] = experiment: Cytopathic effect (CPE) suppression test using HEK293T/ACE2-TMPRSS2 cells (Test Example 1); assay type: cell-based; conditions: Severe acute respiratory syndrome coronavirus 2, HEK-293T, 72 h
[3] = system: SARS-CoV-2 hCoV-19/Japan/TY41-702/2022 (Omicron BE.1/BA.5-like); experiment: Viral proliferation-suppression effect using human airway epithelial cells (Test Example 8); assay type: cell-based; conditions: Severe acute respiratory syndrome coronavirus 2, Epithelial cell, 48 h
SARS-CoV-2 [4] = experiment: Inhibitory activity of cytopathic effect (CPE) in VeroE6/TMPRSS2 cells (Test Example 3); assay type: cell-based
HCoV-229E = experiment: microbe, parasite or virus in culture; assay type: cell-based; conditions: Human coronavirus 229E, MRC5; MRC-5 cells, 72 hours
[5] = system: SARS-CoV-2 hCoV-19/Japan/TY41-702/2022 strain (Omicron BE.1/BA.5-like); set-up: species or system Syrian hamsters; conditions: hamster, in vivo
[6] = system: SARS-CoV-2 hCoV-19/Japan/TY7-501/2021; experiment: Effect of human, mouse and hamster sera on anti-SARS-CoV-2 activity (Test Example 7); assay type: cell-based; conditions: Severe acute respiratory syndrome coronavirus 2, 24 h, VeroE6/TMPRSS2 cells, viral RNA, 1 day
HCoV-OC43 = experiment: microbe, parasite or virus in culture; assay type: cell-based; conditions: Betacoronavirus 1, OC43, MRC5; MRC-5 cells, 72 hours
[7] = system: SARS-CoV-2 hCoV-19/Japan/TY11-927/2021 (Delta); assay type: in vivo, Syrian hamsters; conditions: 4 days after initiation of co-housing
[8] = system: SARS-CoV-2 hCoV-19/Japan/TY11-927/2021; assay type: in vivo, Syrian hamsters; conditions: aged (11-month-old) hamsters
[9] = system: SARS-CoV-2 hCoV-19/Japan/TY41-702/2022 strain (Omicron BE.1/BA.5-like); assay type: in vivo, Syrian hamsters
[10] = system: SARS-CoV-2 hCoV-19/Japan/TY41-702/2022 strain (Omicron BE.1/BA.5-like); set-up: species or system Syrian hamsters; conditions: hamster, in vivo; remark: listed apart in the source
[11] = Cytotoxicity in MRC-5 cells in the absence of virus (Test Example 5); assay type: cell-based; conditions: human
Procedure: MRC-5 cells (2×10^4 cells/well) suspended in growth medium (DMEM supplemented with 10% FBS and penicillin-streptomycin) were seeded into 96-well plates on the day before infection. On the following day, HCoV-OC43 (300 TCID50/well) suspended in maintenance medium (MEM supplemented with 2% FBS and penicillin-streptomycin) was added to infect the cells for 1 hour. The viral fluid is then removed, maintenance medium containing the reagent to be tested is added, and cultured for 72 hours in a CO2 incubator. To evaluate the cytotoxicity of the reagent to be tested, the same procedure was performed in the absence of virus.
The plate that has been cultured for 72 hours is returned to room temperature, subsequently CellTiter-Glo (registered trademark) 2.0 is dispensed into each well, and the plate is mixed using a plate mixer. After standing for a predetermined period of time, the luminescent signal (Lum) is measured using a plate reader.

C#CCn1c(N2CC3(C2)CC(F)(F)C3)c(-c2ccc(F)c(Cl)c2)c(=O)n(-c2cncc(Cl)c2)c1=O [Compound II-1] gave an IC50 [1] of 0.68 nM.

[2H]c1cc(F)c(Cl)c([2H])c1-c1c(N2CC3(C2)CC(F)(F)C3)n(CC#N)c(=[18O])n(-c2cncc(Cl)c2)c1=[18O] [Compound I-2] showed an EC50 (SARS-CoV-2 [2]) of 2.36 nM.

In the case of N#CCn1c(N2CC3(C2)CC(F)(F)C3)c(-c2ccc(F)c(Cl)c2)c(=O)n(-c2cncc(Cl)c2)c1=O [Compound I-1], the EC90 [3] is reported as 2.41 ± 1.61 nM, the EC50 (SARS-CoV-2 [4]; Severe acute respiratory syndrome coronavirus 2, VeroE6/TMPRSS2, Alpha, B. 1. 1. 7, strain QHN002) is reported as 3.85 ± 1.41 nM and the EC50 (SARS-CoV-2 [4]; Severe acute respiratory syndrome coronavirus 2, VeroE6/TMPRSS2, Ancestral, Pango lineage A, strain WK-521) is reported as 8.77 ± 1.92 nM. For the same molecule, the EC50 (SARS-CoV-2 [4]; Severe acute respiratory syndrome coronavirus 2, VeroE6/TMPRSS2, Beta, B. 1. 351, strain TY8-612) was 9.64 ± 1.2 nM, the EC50 (SARS-CoV-2 [4]; Severe acute respiratory syndrome coronavirus 2, VeroE6/TMPRSS2, Delta, AY. 122, strain TY11-927) was 4.91 ± 1.29 nM and the EC50 (SARS-CoV-2 [4]; Severe acute respiratory syndrome coronavirus 2, VeroE6/TMPRSS2, Gamma, P. 1, strain TY7-501) was 8.91 ± 1.62 nM. The EC50 (SARS-CoV-2 [4]; Severe acute respiratory syndrome coronavirus 2, VeroE6/TMPRSS2, Omicron BA. 1. 1, strain TY38-871) was 2.63 nM, the EC50 (SARS-CoV-2 [4]; Severe acute respiratory syndrome coronavirus 2, VeroE6/TMPRSS2, Omicron BA. 2, strain TY40-385) was 7.38 ± 3.82 nM and the EC50 (SARS-CoV-2 [4]; Severe acute respiratory syndrome coronavirus 2, VeroE6/TMPRSS2, Omicron BA. 2. 12. 1, strain TY41-721) was 2.27 ± 0.26 nM. For the same molecule, the EC50 (SARS-CoV-2 [4]; Severe acute respiratory syndrome coronavirus 2, VeroE6/TMPRSS2, Omicron BA. 2. 75, strain TY41-716) was 8.44 ± 1.25 nM, the EC50 (SARS-CoV-2 [4]; Severe acute respiratory syndrome coronavirus 2, VeroE6/TMPRSS2, Omicron BA. 4. 1, strain TY41-703) was 2.45 ± 0.4 nM and the EC50 (SARS-CoV-2 [4]; Severe acute respiratory syndrome coronavirus 2, VeroE6/TMPRSS2, Omicron BA. 4. 6, strain TY41-763) was 6.91 ± 1.21 nM. For the same molecule, the EC50 (SARS-CoV-2 [4]; Severe acute respiratory syndrome coronavirus 2, VeroE6/TMPRSS2, Omicron BA. 5. 2. 1, strain TY41-704) was 6.8 ± 1.38 nM, the EC50 (SARS-CoV-2 [4]; Severe acute respiratory syndrome coronavirus 2, VeroE6/TMPRSS2, Omicron BE. 1/BA. 5-like, strain TY41-702) was 6.54 ± 3.49 nM and the EC50 (SARS-CoV-2 [4]; Severe acute respiratory syndrome coronavirus 2, VeroE6/TMPRSS2, Omicron BF. 7, strain TY41-820) was 9.49 ± 0.56 nM. It also gave an EC50 (SARS-CoV-2 [4]; Severe acute respiratory syndrome coronavirus 2, VeroE6/TMPRSS2, Omicron BF. 7. 4. 1, strain TY41-828) of 7.39 ± 1.97 nM, an EC50 (SARS-CoV-2 [4]; Severe acute respiratory syndrome coronavirus 2, VeroE6/TMPRSS2, Omicron BQ. 1. 1, strain TY41-796) of 11 ± 1.7 nM and an EC50 (SARS-CoV-2 [4]; Severe acute respiratory syndrome coronavirus 2, VeroE6/TMPRSS2, Omicron CH. 1. 1. 11, strain TY41-832) of 5.69 ± 2.44 nM. For the same molecule, the EC50 (SARS-CoV-2 [4]; Severe acute respiratory syndrome coronavirus 2, VeroE6/TMPRSS2, Omicron XBB. 1, strain TY41-795) was 5.11 ± 2.15 nM, the EC50 (SARS-CoV-2 [4]; Severe acute respiratory syndrome coronavirus 2, VeroE6/TMPRSS2, Omicron XBB. 1. 5, strain 23-018) was 7.4 ± 1.08 nM and the EC50 (SARS-CoV-2 [4]; Severe acute respiratory syndrome coronavirus 2, VeroE6/TMPRSS2, Omicron XBB. 1. 9. 1, strain TY41-951) was 12.6 ± 0.9 nM. The EC50 (SARS-CoV-2 [4]; Severe acute respiratory syndrome coronavirus 2, VeroE6/TMPRSS2, Omicron XBB. 1. 16, strain TY41-984) was 7.06 ± 2 nM, the EC50 (SARS-CoV-2 [4]; Severe acute respiratory syndrome coronavirus 2, VeroE6/TMPRSS2, Omicron XBF, strain TY41-831) was 6.27 ± 3.3 nM and the EC50 (SARS-CoV-2 [4]; Severe acute respiratory syndrome coronavirus 2, VeroE6/TMPRSS2, Omicron XE, strain TY41-686) was 7.1 ± 2.59 nM. The EC50 (HCoV-229E) was 3570 ± 510 nM, the lung weight/body weight [5] was 8.24 mg/g and 5.75 mg/g and 5.57 mg/g and the EC50 (SARS-CoV-2 [2]) was 1.66 nM. For the same molecule, the “plasma concentrations immediately before infection” value (3 mg/kg subcutaneous, administered one day prior to infection) was 6.1 ng/mL, the “plasma concentrations immediately before infection” value (3 mg/kg subcutaneous, administered three days prior to infection) was 5.9 ng/mL and the “plasma concentrations immediately before infection” value (10 mg/kg subcutaneous, administered one day prior to infection) was 12.5 ng/mL. For the same molecule, the “plasma concentrations immediately before infection” value (10 mg/kg subcutaneous, administered three days prior to infection) was 3.0 ng/mL, the EC90 ([6]; extrapolated to 100% hamster serum by linear regression, read-out: Hamster serum PA-EC90) was 8.17 nM and the EC90 ([6]; extrapolated to 100% human serum by linear regression, read-out: Human serum PA-EC90) was 7.9 nM. The EC90 ([6]; extrapolated to 100% mouse serum by linear regression, read-out: Mouse serum PA-EC90) was 19.8 nM, the EC50 (HCoV-OC43) was 92 ± 21 nM and the “numbers of non-infected hamsters (Contact) in which viral titers in nasal lavage fluid or supernatants of lung homogenate reached the detection limit (1.8 log10 TCID50/mL) or higher” value ([7]; 3 mg/kg single subcutaneous to Contact 12 hours prior to co-housing) was 5/6. The “numbers of non-infected hamsters (Contact) in which viral titers in nasal lavage fluid or supernatants of lung homogenate reached the detection limit (1.8 log10 TCID50/mL) or higher” value ([7]; 10 mg/kg single subcutaneous to Contact 12 hours prior to co-housing) was 6/6, the “numbers of non-infected hamsters (Contact) in which viral titers in nasal lavage fluid or supernatants of lung homogenate reached the detection limit (1.8 log10 TCID50/mL) or higher” value ([7]; 30 mg/kg single subcutaneous to Contact 12 hours prior to co-housing) was 3/6 and the “numbers of non-infected hamsters (Contact) in which viral titers in nasal lavage fluid or supernatants of lung homogenate reached the detection limit (1.8 log10 TCID50/mL) or higher” value ([7]; 90 mg/kg single subcutaneous to Contact 12 hours prior to co-housing) was 0/6. For the same molecule, the survival [8] was “all hamsters survived until 10 days after infection”, the body weight loss ([8]; up to 10 days) was “suppression of the body weight loss was observed” and the body weight loss ([9]; hamster, in vivo) was “suppression of the body weight loss was observed”. The “viral titers in nasal turbinate homogenates” value ([9]; hamster, in vivo) was 4.80 log10 TCID50/mL and 3.36 log10 TCID50/mL and 5.38 log10 TCID50/mL and 5.01 log10 TCID50/mL, the “plasma concentration exhibiting the effect of suppressing viral proliferation in lung and nasal turbinate homogenates” value ([9]; hamster, in vivo, sc) was ≥ 12 ng/mL and the “plasma concentrations at the time of viral infection exhibiting the effect of suppressing body weight loss” value ([9]; prophylactic subcutaneous administration) was ≥ 6 ng/mL. For the same molecule, the body weight [10] was “the decrease in body weight was suppressed” and the CC50 at 72 h [11] was > 100000 nM.
